Test results published in PubChem BioAssay (NCI).
Values joined by “and” are separate entries in the source; they are usually repeats but may differ in a detail not shown here. Identical values can stand only once.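 Briefly, cells in 96-well plates were exposed to five compound concentrations for 48 h, and endpoints were estimated by linear interpolation. Abbreviation: GI50, concentration required for 50% inhibition of growth. TGI: concentration producing complete growth inhibition.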

system: HT29 colon; experiment: NCI anticancer screen, dose series, 48 h

SMILES	TGI	GI50
CCOC(=O)/C(C)=C(/O)C(=O)OCC	> 100 µM	–
O=C(O)CNS(=O)(=O)c1ccc(NC(=O)c2ccc([N+](=O)[O-])cc2)cc1	> 100 µM	–
CCCCNC1CCCCC[C@H]1O (stereo partly drawn)	> 100 µM	–
N#Cc1cc(-c2cc3ccccc3o2)oc1N	11.3 µM	3.35 µM
Cc1cc(C(=O)Nc2ccc3cc(CN4CCOCC4)ccc3n2)c(C)n1-c1ccccc1	> 100 µM	2.71 µM
[N-]=[N+]=C1C(=O)NN=C1c1ccccc1	> 100 µM	–
COc1ccc2c3c([nH]c2c1[N+](=O)[O-])C(C)N(C)CC3 (stereo not drawn)	42.6 µM	–
CCOC(=O)N[C@@H]1C(CC(=O)OC)O[C@H]2OC(C)(C)O[C@H]21 (stereo partly drawn)	> 100 µM	–
CCCCCCCCCCCCCCCC(=O)OCC(C[As](=O)(O)O)OC(=O)CCCCCCCCCCCCCCC (stereo not drawn)	> 100 µM	–
COc1cc(/C=C/c2ccc(OC)c(O)c2)cc(OC)c1	32.3 µM	–
COc1ccc(C(=O)c2cc(C)c(OC)c(C)c2)cc1OC(=O)CCl	14.8 µM	1.06 µM
O=C(Nc1ccccc1-c1nc2ccccc2[nH]c1=O)c1ccccc1	> 100 µM	–
C=C(C)CCN[Si](c1ccccc1)(c1ccccc1)C(C)(C)C	30.2 µM	–
CC1=[N+]([O-])c2ccccc2C(=O)C1=O	> 100 µM	–
NC(=O)c1cc(Cl)ccc1NC(=O)/C=C/c1ccccc1	> 100 µM	2.22 µM
O=C1/C(=C(/c2ccccc2)N2CCOCC2)Cc2ccccc21	5.28 µM	1.83 µM
CC1=CC(=O)C=CC1=O	40.9 µM and 69.6 µM	16.4 µM and 26.9 µM

SMILES	TGI	GI50
CCCC(CCC)NCC(O)c1cc(-c2ccc(C(F)(F)F)cc2)nc(C(F)(F)F)c1 (stereo not drawn)	3.32 µM	1.83 µM
Cc1cc(C)c(NC(=O)c2sc3nc4c(cc3c2N)C(=O)CCC4)c(C)c1	11.1 µM	3.09 µM
CN(C)CCNc1ccc(CO)c2oc3ccc(O)cc3c(=O)c12	44.9 µM	–
Cc1ccc(NC(=O)c2cccc(C(C)(C)C#N)c2)cc1Nc1ccc2ncn(C)c(=O)c2c1	> 100 µM	0.032 µM
Cc1cc2ncnn2cc1Nc1ncc2c(n1)n(C1CCOCC1)c(=O)n2C	> 100 µM	6.64 µM
COc1ccc(C(=O)c2cc(C)c(OC)c(C)c2)c(OC)c1O	> 55.6 µM	3.73 µM
COCC[C@H]1CCC/C=C/[C@@H]2C[C@H](O)C[C@H]2[C@H](O)/C=C/C(=O)O1	0.227 µM	0.0351 µM
CN(Cc1ccccc1)C(=O)c1ccccc1C(=O)O	> 100 µM	–
CNC(=S)/N=C(\N)N(C)C	> 100 µM	–
CC(=O)C1Cn2c(nc3ccccc32)C[Se]1 (stereo not drawn)	23.2 µM	–
Nc1ccccc1C#C/C=C\C#Cc1ccccc1N	> 100 µM	32 µM
COC(=O)Nc1nc2ccc(C3(c4ccc(F)cc4)OCCO3)cc2[nH]1	> 100 µM	0.317 µM
CN(C)CCC1(C2=CCCC2)CC/C(=C\c2ccc(Cl)cc2)C1=O (stereo not drawn)	8.35 µM	–
CC1=CC(C)(C)N=C2SC(c3ccc(N)cc3)=NN12	98.2 µM	–
O=C(Nc1n[nH]c2cc(-c3ccccc3)ccc12)C1CC1	> 25 µM	2.31 µM
O=C1C2C3C=C4c5ccccc5N(c5ccccc5)C4(C2C(=O)N1c1ccc([N+](=O)[O-])cc1)[C@H]1C(=O)N(c2ccc([N+](=O)[O-])cc2)C(=O)[C@@H]31 (stereo partly drawn)	> 100 µM	–

system: SN12C renal; experiment: NCI anticancer screen, dose series, 48 h

SMILES	TGI	GI50
CCOC(=O)/C(C)=C(/O)C(=O)OCC	> 100 µM	–
O=C(O)CNS(=O)(=O)c1ccc(NC(=O)c2ccc([N+](=O)[O-])cc2)cc1	> 100 µM	–
CCCCNC1CCCCC[C@H]1O (stereo partly drawn)	> 100 µM	–
N#Cc1cc(-c2cc3ccccc3o2)oc1N	11.8 µM	3 µM
Cc1cc(C(=O)Nc2ccc3cc(CN4CCOCC4)ccc3n2)c(C)n1-c1ccccc1	> 92.3 µM	5.75 µM
[N-]=[N+]=C1C(=O)NN=C1c1ccccc1	> 100 µM	–
COc1ccc2c3c([nH]c2c1[N+](=O)[O-])C(C)N(C)CC3 (stereo not drawn)	> 100 µM	–
CCOC(=O)N[C@@H]1C(CC(=O)OC)O[C@H]2OC(C)(C)O[C@H]21 (stereo partly drawn)	> 100 µM	–
CCCCCCCCCCCCCCCC(=O)OCC(C[As](=O)(O)O)OC(=O)CCCCCCCCCCCCCCC (stereo not drawn)	> 100 µM	–
COc1cc(/C=C/c2ccc(OC)c(O)c2)cc(OC)c1	30.3 µM	–
COc1ccc(C(=O)c2cc(C)c(OC)c(C)c2)cc1OC(=O)CCl	> 100 µM	< 0.01 µM
O=C(Nc1ccccc1-c1nc2ccccc2[nH]c1=O)c1ccccc1	69.1 µM	–
C=C(C)CCN[Si](c1ccccc1)(c1ccccc1)C(C)(C)C	32.7 µM	–
CC1=[N+]([O-])c2ccccc2C(=O)C1=O	> 100 µM	–
NC(=O)c1cc(Cl)ccc1NC(=O)/C=C/c1ccccc1	> 100 µM	5.47 µM
O=C1/C(=C(/c2ccccc2)N2CCOCC2)Cc2ccccc21	6.33 µM	2.16 µM
CC1=CC(=O)C=CC1=O	–	28.7 µM

SMILES	TGI	GI50
CCCC(CCC)NCC(O)c1cc(-c2ccc(C(F)(F)F)cc2)nc(C(F)(F)F)c1 (stereo not drawn)	3.2 µM	1.69 µM
Cc1cc(C)c(NC(=O)c2sc3nc4c(cc3c2N)C(=O)CCC4)c(C)c1	> 100 µM	7.42 µM
CN(C)CCNc1ccc(CO)c2oc3ccc(O)cc3c(=O)c12	> 66.3 µM	–
Cc1ccc(NC(=O)c2cccc(C(C)(C)C#N)c2)cc1Nc1ccc2ncn(C)c(=O)c2c1	> 100 µM	4.94 µM
Cc1cc2ncnn2cc1Nc1ncc2c(n1)n(C1CCOCC1)c(=O)n2C	> 100 µM	6.21 µM
COc1ccc(C(=O)c2cc(C)c(OC)c(C)c2)c(OC)c1O	> 100 µM	0.0786 µM
COCC[C@H]1CCC/C=C/[C@@H]2C[C@H](O)C[C@H]2[C@H](O)/C=C/C(=O)O1	> 100 µM	0.274 µM
CN(Cc1ccccc1)C(=O)c1ccccc1C(=O)O	> 100 µM	–
CNC(=S)/N=C(\N)N(C)C	> 100 µM	–
CC(=O)C1Cn2c(nc3ccccc32)C[Se]1 (stereo not drawn)	13.8 µM	–
Nc1ccccc1C#C/C=C\C#Cc1ccccc1N	54.4 µM	21.8 µM
COC(=O)Nc1nc2ccc(C3(c4ccc(F)cc4)OCCO3)cc2[nH]1	> 100 µM	0.584 µM
CN(C)CCC1(C2=CCCC2)CC/C(=C\c2ccc(Cl)cc2)C1=O (stereo not drawn)	24.3 µM	–
CC1=CC(C)(C)N=C2SC(c3ccc(N)cc3)=NN12	> 100 µM	–
O=C(Nc1n[nH]c2cc(-c3ccccc3)ccc12)C1CC1	> 25 µM	16.3 µM
O=C1C2C3C=C4c5ccccc5N(c5ccccc5)C4(C2C(=O)N1c1ccc([N+](=O)[O-])cc1)[C@H]1C(=O)N(c2ccc([N+](=O)[O-])cc2)C(=O)[C@@H]31 (stereo partly drawn)	> 100 µM	–

system: HCC-2998 colon; experiment: NCI anticancer screen, dose series, 48 h

SMILES	TGI	GI50
CCOC(=O)/C(C)=C(/O)C(=O)OCC	> 100 µM	–
O=C(O)CNS(=O)(=O)c1ccc(NC(=O)c2ccc([N+](=O)[O-])cc2)cc1	> 100 µM	–
CCCCNC1CCCCC[C@H]1O (stereo partly drawn)	> 100 µM	–
N#Cc1cc(-c2cc3ccccc3o2)oc1N	18.9 µM	4.92 µM
Cc1cc(C(=O)Nc2ccc3cc(CN4CCOCC4)ccc3n2)c(C)n1-c1ccccc1	> 100 µM	8.78 µM
[N-]=[N+]=C1C(=O)NN=C1c1ccccc1	> 100 µM	–
COc1ccc2c3c([nH]c2c1[N+](=O)[O-])C(C)N(C)CC3 (stereo not drawn)	> 100 µM	–
CCOC(=O)N[C@@H]1C(CC(=O)OC)O[C@H]2OC(C)(C)O[C@H]21 (stereo partly drawn)	> 100 µM	–
CCCCCCCCCCCCCCCC(=O)OCC(C[As](=O)(O)O)OC(=O)CCCCCCCCCCCCCCC (stereo not drawn)	> 100 µM	–
COc1cc(/C=C/c2ccc(OC)c(O)c2)cc(OC)c1	42.6 µM	–
COc1ccc(C(=O)c2cc(C)c(OC)c(C)c2)cc1OC(=O)CCl	> 79.2 µM	0.0391 µM
O=C(Nc1ccccc1-c1nc2ccccc2[nH]c1=O)c1ccccc1	33.7 µM	–
C=C(C)CCN[Si](c1ccccc1)(c1ccccc1)C(C)(C)C	43.3 µM	–
CC1=[N+]([O-])c2ccccc2C(=O)C1=O	> 100 µM	–
NC(=O)c1cc(Cl)ccc1NC(=O)/C=C/c1ccccc1	2.79 µM	0.487 µM
O=C1/C(=C(/c2ccccc2)N2CCOCC2)Cc2ccccc21	4.26 µM	2.08 µM
CC1=CC(=O)C=CC1=O	26.2 µM and 35.4 µM	13.2 µM and 18.6 µM
